Like-named read-outs stand apart in the source and are kept apart here.

One data set relates to recombinant human PDE4. To be noted: background, reported value; read-out: reported IC50 with respect to recombinant human PDE4; cited from earlier work.
The subject of the next data set is serum TNFα. Put plainly: Combined mouse endotoxin-stimulated TNFα release assay (serum TNFα). It counts as in vivo. The conditions noted are these: female Balb/c mice, i.p., LPS model. As to the method: (§1) The purpose of this study was to determine the efficacy of PDE4 inhibitors in vivo in an LPS mouse model together with a determination with respect to central nervous system (CNS) side-effects manifested by a decrease in spontaneous mobility.
(§2) The test animals were female Balb/c mice, having an average weight of about 20 g. The PDE4 inhibitors, formulated in 30% Cremophor® EL, were administered via intraperitoneal (i.p.) injections at doses of 0.1, 1.0, 10.0, and 100 mg/kg. Individual dose volumes (about 150 μL) were adjusted based on the body weights measured. One hour later, 5 mg/kg LPS in a final volume of 200 μL was injected via the tail vein to each animal. Ninety minutes following the LPS treatment, the animals were bled and serum samples were collected before being stored at −70° C. until assayed.
For efficacy determination, the serum samples were diluted two-fold and TNFα levels were determined using the CYTOSCREEN® Immunoassay Kit (Biosource International). The data were averaged between triplicate sample subjects for each of the tested compounds.

The nature of data set [1]: Combined mouse locomotor activity assay (sedative / CNS side-effect scoring). It counts as in vivo. Also on record: key: Vehicle control animals were rated a single “+”; animals that were effectively immobilized and stretched out on the bottom of the cage with little detectable movement were rated as “++++.”. The conditions noted are these: female Balb/c mice, i.p., 10 mg/kg. Here is the method:
as §1, §2
For side-effect profiling, a subjective visual scoring system was utilized at 5 min and 20 min after administration of PDE4 inhibitors. […] In this instance, the subjects could be monitored continuously over pre-set intervals.
Movement of the X-Y plane, or rearing up on the hind legs, was quantified by counting the number of “light-beam” crosses per unit of time. […] The quantitative scoring correlated well with the subjective measurements described above.

In data set [2] the test system is TNFα release from human peripheral blood lymphocytes. Put plainly: Lipopolysaccharide-stimulated TNFα release from human peripheral blood lymphocytes. It counts as cell-based. To be noted: for EC50: Lymphocyte. Here is the method: The compounds of structural formulae (I) and (II) were tested for an ability to reduce TNFα secretions in human peripheral blood lymphocytes. The ability of a compound to reduce TNFα secretion is related to the EC50 value for the compound (i.e., the effective concentration of the compound capable of inhibiting 50% of the total TNFα).
To assess the ability of a compound to reduce TNFα secretion in human peripheral blood lymphocytes (PBL), the following tests were performed.
Heparinized blood (approximately 30 mL) drawn from human volunteers was mixed 1:1 with Dulbecco's modified phosphate-buffered saline. This mixture was mixed 1:1 with HISTOPAQUE® and centrifuged at 1,500 rpm at room temperature without braking in the swinging bucket of a Beckman model TJ6 centrifuge. Erythrocytes were centrifuged to the bottom of the tubes, and serum remained at the surface of the tubes. A layer containing lymphocytes sedimented between the serum and HISTOPAQUE® layers, and was removed by aspiration to a fresh tube. The cells were quantified and adjusted to […] and a 100 μL aliquot is placed into the wells of a 96 well plate. Test compounds and RPMI media (Gibco/BRL Life Sciences) are added to each of the wells 15 minutes prior to addition of bacterial LPS ([…]). The mixture was allowed to incubate for 20 hours at 37° C. in a humidified chamber. The cells then were separated by centrifuging at 800 rpm for 5 minutes at room temperature. An aliquot of 180 μL of supernatant was transferred to a new plate for determination of TNFα concentration. TNFα protein in the cell supernatant fluids was measured using a commercially available enzyme-linked immunosorbent assay (ELISA) (CYTOSCREEN® Immunoassay Kit from Biosource International).
The cell-based assay provided the following results for various compounds of the present invention. The EC50. values (i.e., effective concentration of the compound capable of inhibiting 50% of the total TNFα) illustrate the ability of the present compounds to inhibit LPS-stimulated TNFα release from human PBL.
The cell-based assay provided the following results for various pyrazole compounds of the present invention. The EC50 values (i.e., effective concentrations of the compound capable of inhibiting 50% of the total TNFα) illustrate the ability of the present compounds to inhibit LPS-stimulated TNFα release from human peripheral blood lymphocytes.

The next data set has as its target T1, human recombinant PDE4 (Homo sapiens, UniProt Q07343).
T1 construct: made in house; host or cells: Saccharomyces cerevisiae BJ2-54
Briefly: Inhibition of human recombinant PDE4 (charcoal separation PDE assay). It counts as biochemical. To be noted: PDE4 IC50 (μM). Here is the method: The compounds of structural formula (I) were tested for an ability to inhibit PDE4. […] The IC50 value for compounds of structural formula (I) were determined using human recombinant PDE4.
Phosphodiesterase activity of the preparations was determined as follows. […] In this assay, PDE activity converts [32P]cAMP or [32P]cGMP to the corresponding [32P]5′-AMP or [32P]5′-GMP in proportion to the amount of PDE activity present. The [32P]5′-AMP or [32P]5′-GMP then was quantitatively converted to free [32P]phosphate and unlabeled adenosine or guanosine by the action of snake venom 5′-nucleotidase. […] The assay was performed at 30° C. in a 100 μL reaction mixture containing (final concentrations) 40 mM Tris HCl (pH 8.0), 1 μM ZnSO4, 5 mM MgCl2, and 0.1 mg/mL bovine serum albumin (BSA). Alternatively, in assays assessing PDE1-specific activity, incubation mixtures further incorporated the use of 0.1 mM CaCl2 and 10 μg/mL calmodulin. PDE enzyme was present in quantities that yield <30% total hydrolysis of substrate (linear assay conditions). The assay was initiated by addition of substrate (1 mM [32P]cAMP or cGMP), and the mixture was incubated for 12 minutes. Seventy-five (75) μg of Crotalus atrox venom then was added, and the incubation was continued for 3 minutes (15 minutes total). The reaction was stopped by addition of 200 μL of activated charcoal (25 mg/mL suspension in 0.1 M NaH2PO4, pH 4). After centrifugation (750×g for 3 minutes) to sediment the charcoal, a sample of the supernatant was taken for radioactivity determination in a scintillation counter and the PDE activity was calculated.

T1 sequence (Q07343 whole entry): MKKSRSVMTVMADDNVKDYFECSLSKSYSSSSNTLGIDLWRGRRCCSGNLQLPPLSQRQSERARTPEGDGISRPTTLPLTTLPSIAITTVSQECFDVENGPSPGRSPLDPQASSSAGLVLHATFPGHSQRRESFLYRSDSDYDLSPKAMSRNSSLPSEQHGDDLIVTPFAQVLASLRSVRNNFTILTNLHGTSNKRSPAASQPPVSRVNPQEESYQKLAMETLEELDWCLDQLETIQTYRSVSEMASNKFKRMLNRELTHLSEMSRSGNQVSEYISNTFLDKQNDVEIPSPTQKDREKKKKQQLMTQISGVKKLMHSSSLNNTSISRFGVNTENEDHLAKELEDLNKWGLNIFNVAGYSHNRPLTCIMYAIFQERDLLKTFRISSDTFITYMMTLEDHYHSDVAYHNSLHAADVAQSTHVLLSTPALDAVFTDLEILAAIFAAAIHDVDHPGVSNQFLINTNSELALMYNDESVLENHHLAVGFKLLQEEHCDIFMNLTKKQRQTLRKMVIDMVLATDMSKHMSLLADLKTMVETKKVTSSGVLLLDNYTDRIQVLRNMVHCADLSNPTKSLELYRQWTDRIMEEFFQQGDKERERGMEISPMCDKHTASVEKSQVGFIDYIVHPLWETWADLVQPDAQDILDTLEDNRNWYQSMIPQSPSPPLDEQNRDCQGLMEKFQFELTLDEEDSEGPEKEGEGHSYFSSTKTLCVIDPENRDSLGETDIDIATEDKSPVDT

With `COC(=O)N1CC(c2ccc(OC)c(OC3CCCC3)c2)C(C)(C(C)=O)C1` (stereo not shown), the IC50 in the data set with recombinant human PDE4 was about 2 nM.

As for `COC(=O)N1C[C@@H](c2ccc(OC)c(OC3CCCC3)c2)[C@](C)(C(C)=O)C1` (relative stereo) [Comparative Example, trans-3-(3-cyclopentoxy-4-methoxyphenyl)-1-methoxycarbonyl-4-methyi-4-(methylcarbonyi)pyrrolidine], the results for the “% TNFQ Inhibition” value in the data set with serum TNFα (1 mg/kg), in the data set with serum TNFα (10 mg/kg) and with serum TNFα (100 mg/kg) were 43%, 100% and 100%, respectively. For the same molecule, in data set [1], the “Sedative Effect” value is “+”.

`CCOC(=O)c1c(C)nn(-c2ccc(N=Cc3ccc(OC)cc3)cc2)c1C` [Example 39]: the EC50 in data set [2] (LPS-stimulated TNFα release from human PBL, read-out: PBL/TNFα EC50) was found to be 1.3 µM. Further, the concentration for half-maximal inhibition (IC50) on human recombinant PDE4 (structure table) and at human recombinant PDE4 (table with PBL/TNFα) was 0.69 µM in each case.

For the molecule `CCOC(=O)c1c(C)nn(-c2ccc(NCc3ccccc3O)cc2)c1C` [Example 40], in data set [2] (Homo sapiens, read-out: PBL/TNFα EC50 (μM)), the EC50 came out at 6.2 µM. Also, the IC50 at human recombinant PDE4 (structure table) and at human recombinant PDE4 (table with PBL/TNFα) was 0.92 µM each time.

With `COc1ccc(C2CNC(=O)C2)cc1OC1CCCC1` (stereo not shown) [Rolipram, reference compound], in data set [2] (preliminary experiments), the “LPS-induced TNFα secretion from human lymphocytes” value is “inhibit LPS-induced TNFα secretion from human lymphocytes in a dose-dependent fashion”. For the same molecule, in the data set on recombinant human PDE4, the concentration for half-maximal inhibition (IC50) was about 200 nM.

By IC50 is commonly meant the point on the concentration scale where inhibition reaches its midpoint.
